The numbers were not newly measured in patent US8633323B2, “Process for preparing bis(thiohydrazide amides)” (Synta Pharmaceuticals Corp., priority 2008, dated 2014), which cites them from elsewhere.

Each structure is given as a SMILES string.

Data set [1] concerns stage 1V metastatic melanoma. Particulars: in combination with Taxol, in relation to patients treated with Taxol alone; patients suffering from stage 1V metastatic melanoma.
The conditions of data set [2]: background statement: effective administration has been challenging.

As for `CN(NC(=O)CC(=O)NN(C)C(=S)c1ccccc1)C(=S)c1ccccc1` [N-malonyl-bis(N′-methyl-N′-thiobenzoylhydrazide)], the time to progress entry in data set [1] is listed as “increase the time to progress”. Besides, in data set [2], the solubility result is reported as “low solubility”.
